Reference: patent publication US9493484B2, “Heterocyclic compound and use thereof” (Takeda Pharmaceutical Company Limited, priority 2012, dated 2016)

Biological target: T1, GluR1 flip/stargazin (AMPA receptor) in CHO-K1/GluR1 flip/stargazin-expressing cells (Homo sapiens, UniProt P42261)
T1 construct: expressed in transfected cells; host or cells: CHO-K1
Assay: AMPA receptor function-enhancing activity of compound, using calcium influx as an index
Type: cell-based
Conditions: test compound final concentration 30 μM with 3 mM glutamic acid, 100% = 3 mM glutamic acid + 300 μM cyclothiazide
Description: Human GluR1 flip cDNA was amplified by PCR method using forward primer […] (SEQ ID NO: 1) and reverse primer […] (SEQ ID NO: 2) artificially synthesized using human brain-derived cDNA (BD Bioscience) as a template. The amplified product was digested with restriction enzymes EcoRI, NotI (TAKARA SHUZO CO. LTD.) and incorporated into the same site of pcDNA3.1(+) (Invitrogen) to construct pcDNA3.1(+)/human GluR1 flip gene. Human stargazin cDNA was amplified by PCR method using forward primer […] (SEQ ID NO: 3) and reverse primer […] (SEQ ID NO: 4) artificially synthesized using human hippocampus cDNA as a template. The amplified product was digested with restriction enzymes XhoI, BamHI (TAKARA SHUZO CO. LTD.) and incorporated into the same site of pcDNA3.1(−) (Invitrogen) to construct pcDNA3.1 Zeo(−)/human stargazing gene.
CHO-K1 cells passaged in a culture medium (Ham's F12 medium (Invitrogen) added with 10% inactivated fetal bovine serum (Morgate) and penicillin, streptomycin (Invitrogen)) were detached using 0.05% trypsin and 0.53 mM EDTA (Invitrogen) diluted with D-PBS(−). The detached cells were suspended in a culture medium, and recovered by centrifugation at 1,000 rpm. The recovered cells were re-suspended in D-PBS(−) and added into 0.4 cm electroporation cuvette (BioRad). pcDNA3.1(+)/human GluR1 flip gene (5 μg) and pcDNA3.1 Zeo(−)/human stargazin gene (15 μg) were added, and introduced into CHO-K1 cells under the conditions of […], […] and using Gene Pulser II (BioRad). The introduced cells were cultured overnight in a culture medium. The next day, using a selection medium (culture medium added with zeocin (Invitrogen) at 250 μg/mL), the cells were plated in a 96 well plate at 250 cells/well. The clones showing drug resistance were selected, and GluR1 flip/stargazin expression clones were selected by an assay method shown below using calcium influx as an index.
CHO-K1/GluR1 flip/stargazin-expressing cells were plated on a 96 well black bottom transparent plate (coaster) at 3×10^4 cells/well, and cultured for 2 days in a CO2 incubator (SANYO ELECTRIC Co. Ltd.) at 37° C. The medium of the cell plate was removed, a calcium indicator (Calcium4 Assay Kit, Molecular Device) dissolved in a liquid obtained by adding 1.25 mM probenecid (Invitrogen) to an assay buffer (140 mM NaCl, 5 mM KCl, 10 mM Glucose, 2 mM CaCl2, 1 mM MgCl2, 10 mM HEPES, pH 7.4, 0.1% BSA (SIGMA)) was added at 100 μL/well, and left in a CO2 incubator at 37° C. for 1 hr. A cell plate was set on CellLux (PerkinElmer), a mixture (50 μL) of 9 mM glutamic acid (final concentration 3 mM) diluted with an assay buffer and a test compound (test compound final concentration 30 μM) was added, and variation in the amount of fluorescence was measured for 2 min. The variation of fluorescence level of a well added with final concentration 3 mM glutamic acid and 300 μM cyclothiazide (TOCRIS, prepared from 100 mM dimethyl sulfoxide solution) was defined as 100%, the variation of fluorescence level of a well containing final concentration 3 mM glutamic acid and 0.33% dimethyl sulfoxide was defined as 0%, and the activity of the m compound was calculated by the following formula. activity (%)=(X−C)/(T−C)×100 T: variation of fluorescence level of well added with final concentration 3 mM of glutamic acid and 300 μM cyclothiazide C: variation of fluorescence level of well added with final concentration 3 mM of glutamic acid alone X: variation of fluorescence level of well added with final concentration 3 mM of glutamic acid and 30 μM test compound

T1 sequence (P42261 19-906 isoform P42261-2 limits assumed): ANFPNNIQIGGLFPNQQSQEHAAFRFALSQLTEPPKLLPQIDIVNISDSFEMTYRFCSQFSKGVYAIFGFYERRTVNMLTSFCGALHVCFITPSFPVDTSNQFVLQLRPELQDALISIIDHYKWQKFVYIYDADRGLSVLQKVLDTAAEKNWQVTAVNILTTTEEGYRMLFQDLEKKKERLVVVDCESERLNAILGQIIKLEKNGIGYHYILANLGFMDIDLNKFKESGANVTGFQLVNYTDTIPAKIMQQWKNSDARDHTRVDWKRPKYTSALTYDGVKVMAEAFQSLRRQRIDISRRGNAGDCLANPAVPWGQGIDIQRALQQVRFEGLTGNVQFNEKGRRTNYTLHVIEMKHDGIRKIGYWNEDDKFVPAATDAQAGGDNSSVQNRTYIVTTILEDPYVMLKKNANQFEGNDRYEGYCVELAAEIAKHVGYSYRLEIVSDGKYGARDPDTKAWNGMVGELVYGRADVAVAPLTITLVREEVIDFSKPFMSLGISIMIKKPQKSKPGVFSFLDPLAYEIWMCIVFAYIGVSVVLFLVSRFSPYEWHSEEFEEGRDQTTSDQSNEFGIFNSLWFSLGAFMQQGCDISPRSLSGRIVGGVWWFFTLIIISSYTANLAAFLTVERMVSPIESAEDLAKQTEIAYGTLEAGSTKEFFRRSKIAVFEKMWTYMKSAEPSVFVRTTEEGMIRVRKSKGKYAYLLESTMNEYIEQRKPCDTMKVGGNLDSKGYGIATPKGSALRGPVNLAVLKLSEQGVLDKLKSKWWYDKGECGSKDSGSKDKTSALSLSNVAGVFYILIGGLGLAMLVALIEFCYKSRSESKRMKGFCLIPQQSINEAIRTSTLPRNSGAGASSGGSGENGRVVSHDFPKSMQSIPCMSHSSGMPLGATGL
T1 sequence (Q9Y698 whole entry partner): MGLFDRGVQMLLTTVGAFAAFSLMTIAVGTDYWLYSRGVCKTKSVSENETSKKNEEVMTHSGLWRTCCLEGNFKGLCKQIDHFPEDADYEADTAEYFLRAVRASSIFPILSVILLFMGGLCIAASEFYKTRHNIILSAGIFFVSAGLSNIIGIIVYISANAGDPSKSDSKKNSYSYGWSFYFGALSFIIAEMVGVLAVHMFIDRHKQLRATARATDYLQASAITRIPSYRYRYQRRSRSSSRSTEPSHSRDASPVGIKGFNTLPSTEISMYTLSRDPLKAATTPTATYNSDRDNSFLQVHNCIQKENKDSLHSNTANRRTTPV

Compound | activity (%)
O=S1(=O)CCN2C(=N1)C1(c3ccc(OCc4cccc(Cl)c4)cc3)CCC2CC1 [Example 30, 9-(4-((3-chlorobenzyl)oxy)phenyl)-3,4,6,7,8,9-hexahydro-6,9-ethanopyrido[2,1-c][1,2,4]thiadiazine 2,2-dioxide] | 22
Cc1ccc(Oc2ccc(C34CCC(CC3)N3CCS(=O)(=O)N=C34)cc2)cc1C#N [Example 47, 5-(4-(2,2-dioxido-3,4,7,8-tetrahydro-6,9-ethanopyrido[2,1-c][1,2,4]thiadiazin-9(6H)-yl)phenoxy)-2-methylbenzonitrile] | 87
CC(F)(F)c1cccc(Oc2ccc(C34CCC(CC3)N3CCS(=O)(=O)N=C34)cc2)c1 [Example 2, 9-(4-(3-(1,1-difluoroethyl)phenoxy)phenyl)-3,4,6,7,8,9-hexahydro-6,9-ethanopyrido[2,1-c][1,2,4]thiadiazine 2,2-dioxide] | 74
O=S1(=O)CCN2C(=N1)C1(c3ccc(Oc4ccc(Cl)cc4)cc3)CCC2CC1 [Example 1, 9-(4-(4-chlorophenoxy)phenyl)-3,4,6,7,8,9-hexahydro-6,9-ethanopyrido[2,1-c][1,2,4]thiadiazine 2,2-dioxide] | 26
O=S1(=O)CCN2C(=N1)C1(c3ccc(OCC4CCCO4)cc3)CCC2CC1 (stereo not shown) [Example 38, 9-(4-(tetahydrofuran-2-ylmethoxy)phenyl)-3,4,6,7,8,9-hexahydro-6,9-ethanopyrido[2,1-c][1,2,4]thiadiazine 2,2-dioxide] | 87
N#Cc1cccc(Oc2ccc(C34CCC(CC3)N3CCS(=O)(=O)N=C34)cc2)c1 [Example 16, 3-(4-(2,2-dioxido-3,4,7,8-tetrahydro-6,9-ethanopyrido[2,1-c][1,2,4]thiadiazin-9(6H)-yl)phenoxy)benzonitrile] | 87
O=S1(=O)CCN2CCCN(c3ccc(Oc4ccc(Cl)cc4)cc3)C2=N1 [Example 45, 9-(4-(4-chlorophenoxy)phenyl)-3,4,6,7,8,9-hexahydropyrimido[2,1-c][1,2,4]thiadiazine 2,2-dioxide] | 77
O=S1(=O)CCN2C(=N1)C1(c3ccc(Oc4cc(C(F)(F)F)ccn4)cc3)CCC2CC1 [Example 15, 9-(4-((4-(trifluoromethyl)pyridin-2-yl)oxy)phenyl)-3,4,6,7,8,9-hexahydro-6,9-ethanopyrido[2,1-c][1,2,4]thiadiazine 2,2-dioxide] | 92
CC(C)COc1ccc(C23CCC(CC2)N2CCS(=O)(=O)N=C23)cc1 [Example 28, 9-(4-isobutoxyphenyl)-3,4,6,7,8,9-hexahydro-6,9-ethanopyrido[2,1-c][1,2,4]thiadiazine 2,2-dioxide] | 91
O=S1(=O)CCN2C(=N1)C1(c3ccc(Oc4ncccn4)cc3)CCC2CC1 [Example 23, 9-(4-(pyrimidin-2-yloxy)phenyl)-3,4,6,7,8,9-hexahydro-6,9-ethanopyrido[2,1-c][1,2,4]thiadiazine 2,2-dioxide] | 61
